Source: ChEMBL document CHEMBL4483862, “Open-source discovery of chemical leads for next-generation chemoprotective antimalarials” (2018)
pIC50: −log10 of the molar value.

Tested on: Plasmodium berghei
Experiment: Luciferase/luciferin-expressing antifolate-resistant parasites were used to infect a culture of HepG2 cells that were pre-incubated with compounds. Infected hepatocytes emit light due to the luciferase reaction. Assay results are presented as the percent inhibition of light emission compared to control. […]
Assay type: functional
Conditions: sporozoite; for IC90: read-out: LUCIFERASE INFECTION ASSAY - IC90
[1] = read-out: LUCIFERASE INFECTION ASSAY - IC50

SMILES: O=C1C=C/C(=N\Nc2ccccc2C(F)(F)F)c2cccnc21
- pIC50 (HEPG2TOX_HILL_SLOPE 0.86, HEPG2TOX_R_SQUARED 0.964, PBLUC_HILL_SLOPE 13.8, PBLUC_R_SQUARED 0.7, read-out: LUCIFERASE INFECTION ASSAY - IC50): 5.95
- IC90: 1.31 µM

SMILES: CN(c1ccccc1)c1nccc2nc(-c3ccncc3)[nH]c12
- pIC50 (HEPG2TOX_HILL_SLOPE 0.766, HEPG2TOX_R_SQUARED 0.225, read-out: LUCIFERASE INFECTION ASSAY - IC50): < 5.00
- IC90: > 10 µM

SMILES: CC(C)(C)c1ccc(C(=O)NC(=S)NNC(=O)c2cccc([N+](=O)[O-])c2)cc1
- pIC50 (PBLUC_HILL_SLOPE 3.29, PBLUC_R_SQUARED 0.591, read-out: LUCIFERASE INFECTION ASSAY - IC50): 5.74
- IC90: 3.57 µM

SMILES: O=C(Nc1ccc(S(=O)(=O)N2CCCC2)cc1)c1cc([N+](=O)[O-])ccc1Sc1nnnn1-c1ccccc1
- pIC50 (FFLUC_HILL_SLOPE 8.42, FFLUC_R_SQUARED 0.732, read-out: LUCIFERASE INFECTION ASSAY - IC50): < 5.00
- IC90: > 10 µM

SMILES: CNc1snc(C)c1C(=O)N(C)Cc1ccc(OC(F)(F)F)cc1
- pIC50 (HEPG2TOX_HILL_SLOPE 0.114, HEPG2TOX_R_SQUARED 0.0245, PBLUC_HILL_SLOPE 2.54, PBLUC_R_SQUARED 0.592, read-out: LUCIFERASE INFECTION ASSAY - IC50): 5.94
- IC90: 2.72 µM

SMILES: c1ccc(NCCNc2nc(-c3ccncc3)nc3ccccc23)nc1
- pIC50 (PBLUC_HILL_SLOPE 1.36, PBLUC_R_SQUARED 0.325, read-out: LUCIFERASE INFECTION ASSAY - IC50): 5.29
- IC90: > 10 µM

SMILES: Cc1ccc(-c2cs/c(=N\c3ccc(C)c(C)c3)n2/N=C/c2ccc(O)cc2O)cc1
- pIC50 [1]: < 5.00
- IC90: > 10 µM

SMILES: CC(C)NC(=O)c1c(NC(=O)c2cccc(C#N)c2)nc2ccccn12
- pIC50 (HEPG2TOX_HILL_SLOPE 1.47, HEPG2TOX_R_SQUARED 0.952, PBLUC_HILL_SLOPE 19.2, PBLUC_R_SQUARED 0.401, read-out: LUCIFERASE INFECTION ASSAY - IC50): 5.16
- IC90: 7.68 µM

SMILES: COc1cncc(-c2cc(Nc3ccc(Oc4ccccc4)cc3)ncn2)c1
- pIC50 (PBLUC_HILL_SLOPE 10.3, PBLUC_R_SQUARED 0.501, read-out: LUCIFERASE INFECTION ASSAY - IC50): 5.11
- IC90: > 8.91 µM

SMILES: c1ccc(-c2csc3ncnc(N4CCN(c5cnccn5)CC4)c23)cc1
- pIC50 [1]: < 5.00
- IC90: > 10 µM

SMILES: Cc1cc(C)c(C)c(S(=O)(=O)N2CCN(CC(=O)c3c(N)n(Cc4ccccc4)c(=O)n(C)c3=O)CC2)c1C
- pIC50 (FFLUC_HILL_SLOPE 17, FFLUC_R_SQUARED 0.51, read-out: LUCIFERASE INFECTION ASSAY - IC50): < 5.00
- IC90: > 10 µM

SMILES: CN(C)c1ccc(/C=N/NC(=O)c2ccccc2N)c(Cl)c1
- pIC50 [1]: < 4.98
- IC90: > 10.4 µM

SMILES: COc1ccc(CN2C(=O)N(CC(C)C)C3(CCN(CCCc4ccccc4)CC3)C2=O)cc1
- pIC50 (HEPG2TOX_HILL_SLOPE 0.288, HEPG2TOX_R_SQUARED 0.281, PBLUC_HILL_SLOPE 3.96, PBLUC_R_SQUARED 0.368, read-out: LUCIFERASE INFECTION ASSAY - IC50): 5.55
- IC90: 4.86 µM

SMILES: Cc1cc2ncc(-c3ccnc(SCC(=O)C(C)(C)C)n3)c(C)n2n1
- pIC50 [1]: < 5.03
- IC90: > 9.28 µM

SMILES: CCC(C)(C)C1CCC2(CC1)NC(N)=Nc1nc3ccccc3n12 (centres undefined)
- pIC50 (PBLUC_HILL_SLOPE 13.4, PBLUC_R_SQUARED 0.322, read-out: LUCIFERASE INFECTION ASSAY - IC50): 5.55
- IC90: 3.31 µM

SMILES: CN(CC(=O)Nc1ccc(Cl)c(S(=O)(=O)N2CCCCC2)c1)C1CCc2ccccc21 (centres undefined)
- pIC50 (PBLUC_HILL_SLOPE 13.6, PBLUC_R_SQUARED 0.21, read-out: LUCIFERASE INFECTION ASSAY - IC50): 5.00
- IC90: > 10 µM

SMILES: NC(CCc1ccccc1)c1csc(Nc2ccc(C(F)(F)F)cn2)n1 (centres undefined)
- pIC50 (PBLUC_HILL_SLOPE 84.8, PBLUC_R_SQUARED 0.093, read-out: LUCIFERASE INFECTION ASSAY - IC50): 5.36
- IC90: 4.5 µM

SMILES: Cc1cc(=O)n2nc(CSc3nc4ccccc4c(=O)n3C3CCCC3)sc2n1
- pIC50 [1]: < 5.00
- IC90: > 10 µM

SMILES: CN(CC1COc2ccccc2O1)C(=O)Nc1nc2ccccc2s1 (centres undefined)
- IC90: > 10 µM

SMILES: Cc1ccc(-n2c(=O)c3ccccc3n3c(SCc4nnnn4C4CC4)nnc23)c(C)c1
- pIC50 [1]: < 5.00
- IC90: > 10 µM

SMILES: Cc1ccc(S(=O)(=O)c2c(C)nn(C(C)(C)C)c2OC(=O)c2cccc([N+](=O)[O-])c2)cc1
- pIC50 [1]: < 5.00
- IC90: > 10 µM

SMILES: CC(=O)Nc1cccc(Oc2ccc(C(=O)Nc3ccc4ccccc4c3)cc2[N+](=O)[O-])c1
- pIC50 (HEPG2TOX_HILL_SLOPE 7.7, HEPG2TOX_R_SQUARED 0.774, PBLUC_HILL_SLOPE 1.37, PBLUC_R_SQUARED 0.884, read-out: LUCIFERASE INFECTION ASSAY - IC50): 6.47
- IC90: 1.68 µM

SMILES: CCOc1ccc(OCC)c(S(=O)(=O)Oc2cccc3cccnc23)c1
- pIC50 (HEPG2TOX_HILL_SLOPE 2.73, HEPG2TOX_R_SQUARED 0.737, PBLUC_HILL_SLOPE 3.92, PBLUC_R_SQUARED 0.473, read-out: LUCIFERASE INFECTION ASSAY - IC50): 5.36
- IC90: 7.66 µM

SMILES: Fc1ccc(CNCC2(c3ccnc(-c4ccc(Cl)cc4)c3)CC2)cc1
- pIC50 (PBLUC_HILL_SLOPE 1.81, PBLUC_R_SQUARED 0.142, read-out: LUCIFERASE INFECTION ASSAY - IC50): < 5.00
- IC90: > 10 µM

SMILES: O=C(NCC(c1ccco1)N1CCCC1)c1ccc(Cl)c(S(=O)(=O)N2CCc3ccccc32)c1 (centres undefined)
- pIC50 (FFLUC_HILL_SLOPE 10.9, FFLUC_R_SQUARED 0.158, HEPG2TOX_HILL_SLOPE 3.24, HEPG2TOX_R_SQUARED 0.613, PBLUC_HILL_SLOPE 5.35, PBLUC_R_SQUARED 0.563, read-out: LUCIFERASE INFECTION ASSAY - IC50): 5.15
- IC90: > 10 µM

SMILES: CSc1sc(-c2ccon2)c(-c2ccccc2)c1C#N
- pIC50 [1]: < 4.95
- IC90: > 11.1 µM

SMILES: Cc1ccc(CC2CC(=O)N(C3CCCCC3)C2=O)cc1 (centres undefined)
- pIC50 [1]: < 4.94
- IC90: > 11.6 µM

SMILES: O=C(Nc1ccncc1)c1cc(Br)c(Br)s1
- pIC50 (PBLUC_HILL_SLOPE 0.742, PBLUC_R_SQUARED 0.564, read-out: LUCIFERASE INFECTION ASSAY - IC50): 5.37
- IC90: > 10 µM

SMILES: CCOC(=O)c1ccc(S(=O)(=O)N2CCC(N(C)C)CC2)cc1
- pIC50 [1]: < 5.00
- IC90: > 10 µM

SMILES: O=C1Nc2ccccc2/C1=C/c1ccccc1N1CCOCC1
- pIC50 (HEPG2TOX_HILL_SLOPE 1.93, HEPG2TOX_R_SQUARED 0.799, PBLUC_HILL_SLOPE 2.49, PBLUC_R_SQUARED 0.295, read-out: LUCIFERASE INFECTION ASSAY - IC50): 5.23
- IC90: > 10.8 µM

SMILES: N#Cc1ncn(CC(=O)NCC2(N3CCOCC3)CCCCC2)n1
- pIC50 (HEPG2TOX_HILL_SLOPE 0.0925, HEPG2TOX_R_SQUARED 0.157, read-out: LUCIFERASE INFECTION ASSAY - IC50): < 5.00
- IC90: > 10 µM

SMILES: COc1ccc(Cn2c3c(c4ccccc4c2=O)C(=O)c2ccccc2-3)cc1
- pIC50 (HEPG2TOX_HILL_SLOPE 4, HEPG2TOX_R_SQUARED 0.749, PBLUC_HILL_SLOPE 2.74, PBLUC_R_SQUARED 0.283, read-out: LUCIFERASE INFECTION ASSAY - IC50): 5.10
- IC90: > 8.98 µM

SMILES: CCCNc1cc(-c2ccccc2)nc(-n2nc(C)cc2C)n1
- pIC50 (PBLUC_HILL_SLOPE 8.43, PBLUC_R_SQUARED 0.511, read-out: LUCIFERASE INFECTION ASSAY - IC50): 5.49
- IC90: 4.24 µM

SMILES: CN(C)c1cccc(-c2cnc3sc(NCc4ccncc4)nn23)c1
- pIC50 [1]: < 5.03
- IC90: > 9.42 µM

SMILES: Fc1ccc(NC(=S)NC2CC3CC2C2C=CCC32)cc1 (centres undefined)
- pIC50 (PBLUC_HILL_SLOPE 3.22, PBLUC_R_SQUARED 0.522, read-out: LUCIFERASE INFECTION ASSAY - IC50): 5.39
- IC90: 8.13 µM

SMILES: CNc1ncnc(NNC(=O)Nc2ccc(Cl)cc2)c1[N+](=O)[O-]
- pIC50 (PBLUC_HILL_SLOPE 3.27, PBLUC_R_SQUARED 0.316, read-out: LUCIFERASE INFECTION ASSAY - IC50): 5.23
- IC90: > 9.77 µM

SMILES: Cc1cc(Cl)ccc1NC(N)=NN
- pIC50 [1]: < 5.00
- IC90: > 10.1 µM

SMILES: C=CCn1c(N)c(-c2nc3ccccc3[nH]2)c2nc3ccccc3nc21
- pIC50 (PBLUC_HILL_SLOPE 3.6, PBLUC_R_SQUARED 0.636, read-out: LUCIFERASE INFECTION ASSAY - IC50): 5.22
- IC90: > 9.69 µM

SMILES: Cc1cc(Br)c(NC(=S)NC(=O)C(C)(C)C)c(Br)c1
- pIC50 (HEPG2TOX_HILL_SLOPE 2.38, HEPG2TOX_R_SQUARED 0.209, read-out: LUCIFERASE INFECTION ASSAY - IC50): < 5.09
- IC90: > 8.09 µM

SMILES: CCCS(=O)(=O)/C(C#N)=N/Nc1cc(C(F)(F)F)cc(C(F)(F)F)c1
- pIC50 (PBLUC_HILL_SLOPE 6.87, PBLUC_R_SQUARED 0.748, read-out: LUCIFERASE INFECTION ASSAY - IC50): 5.49
- IC90: 4.41 µM

SMILES: CCOc1ccc(-c2nc(CC(=O)NCc3ccnc(OC)c3)cs2)cc1
- pIC50 (PBLUC_HILL_SLOPE 12.8, PBLUC_R_SQUARED 0.477, read-out: LUCIFERASE INFECTION ASSAY - IC50): 5.54
- IC90: 3.46 µM

SMILES: Cn1ccnc1/C(=N\NC(=O)c1sc2ccccc2c1Cl)c1cccc([N+](=O)[O-])c1
- pIC50 [1]: < 5.00
- IC90: > 10 µM

SMILES: CS(=O)(=O)Nc1nc(-c2ccccn2)nc2scc(-c3ccccc3)c12
- pIC50 (HEPG2TOX_HILL_SLOPE 1.24, HEPG2TOX_R_SQUARED 0.884, PBLUC_HILL_SLOPE 3.45, PBLUC_R_SQUARED 0.254, read-out: LUCIFERASE INFECTION ASSAY - IC50): 5.76
- IC90: 3.29 µM

SMILES: O=C(Cc1ccsc1)NNC(=O)c1cccc(S(=O)(=O)Nc2cccc(C(F)(F)F)c2)c1
- pIC50 [1]: < 5.00
- IC90: > 10 µM

SMILES: C=S(=O)(NC(=O)c1ccc(C(F)(F)F)cc1)c1ccccc1 (centres undefined)
- pIC50 [1]: < 5.00
- IC90: > 10.1 µM
